This note sets out measurements from patent publication US12624034B2, “Non-covalent modifiers of AKT1 and uses thereof” (Terremoto Biosciences, Inc., priority 2023, dated 2026).

The target of one assay is T1, AKT1 WT (Homo sapiens, UniProt P31749).
T1 construct: expressed in transfected cells; host or cells: HEK293
Put plainly: Live cell AKT1 WT target engagement by NanoBRET competitive probe displacement in HEK293 cells. Format: binding. The conditions noted are these: 2 h at 37° C., read-out: AKT1 WT IC50. In general terms: Bioluminescence resonance energy transfer reports proximity on the nanometre scale.

The target in a further assay is T2, AKT2 (Homo sapiens, UniProt P31751).
T2 construct: expressed in transfected cells; host or cells: HEK293
T2 sequence (P31751 whole entry): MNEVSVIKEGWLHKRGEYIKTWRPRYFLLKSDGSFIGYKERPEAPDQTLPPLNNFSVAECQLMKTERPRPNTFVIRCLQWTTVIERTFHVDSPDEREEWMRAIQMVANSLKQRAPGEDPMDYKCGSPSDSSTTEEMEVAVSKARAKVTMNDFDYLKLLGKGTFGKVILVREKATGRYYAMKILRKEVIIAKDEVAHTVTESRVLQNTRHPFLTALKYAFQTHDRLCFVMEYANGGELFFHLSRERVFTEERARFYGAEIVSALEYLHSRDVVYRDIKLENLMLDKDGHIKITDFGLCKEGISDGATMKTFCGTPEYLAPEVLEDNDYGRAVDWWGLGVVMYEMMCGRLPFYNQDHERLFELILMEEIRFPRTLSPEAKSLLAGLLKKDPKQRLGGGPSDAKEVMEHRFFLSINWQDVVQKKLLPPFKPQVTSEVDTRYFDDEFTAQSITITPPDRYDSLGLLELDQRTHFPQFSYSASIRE
Nature of the assay: Live cell AKT2 target engagement by NanoBRET competitive probe displacement in HEK293 cells. Format: binding. The following applies: 2 h at 37° C., read-out: AKT2 IC50.

Setting [1] is: NanoBRET competitive probe displacement, live HEK293 cells.
Setting [2] is: NanoBRET live cell target engagement, HEK293 cells.

Each structure is given as a SMILES string. Where two headings read alike, the source gives them in different places.

T1 sequence (P31749 whole entry): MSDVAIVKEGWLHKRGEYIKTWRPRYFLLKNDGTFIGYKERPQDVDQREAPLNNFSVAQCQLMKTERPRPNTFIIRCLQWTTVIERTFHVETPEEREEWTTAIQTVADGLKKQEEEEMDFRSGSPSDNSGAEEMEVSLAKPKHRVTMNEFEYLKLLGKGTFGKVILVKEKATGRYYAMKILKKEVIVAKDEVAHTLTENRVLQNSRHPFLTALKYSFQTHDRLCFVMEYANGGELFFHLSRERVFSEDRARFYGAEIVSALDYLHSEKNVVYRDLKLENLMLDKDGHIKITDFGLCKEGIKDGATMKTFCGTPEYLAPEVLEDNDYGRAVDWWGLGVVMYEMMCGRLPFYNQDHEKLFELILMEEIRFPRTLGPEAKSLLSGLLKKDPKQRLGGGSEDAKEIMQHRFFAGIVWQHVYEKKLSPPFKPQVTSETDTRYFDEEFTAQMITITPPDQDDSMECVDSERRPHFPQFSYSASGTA

In the case of `Nc1ncccc1-c1nc2ccc(-n3cccn3)nc2n1-c1ccc2c(c1)CC[C@@H]2NC1CCc2ccncc21` (single isomer, unassigned) [Example 495, (S*)—N—((S)-5-(2-(2-aminopyridin-3-yl)-5-(1H-pyrazol-1-yl)-3H-imidazo[4,5-b]pyridin-3-yl)-2,3-dihydro-1H-inden-1-yl)-6,7-dihydro-5H-cyclopenta[c]pyridin-7-amine], the IC50 on AKT1 WT (setting [1]) stood at 9.4 nM; at AKT2 (setting [1]), 197 nM.
With `CCc1ccc(C(=O)N[C@H]2CCc3cc(-n4c(-c5cccnc5N)nc5ccc(-n6cccn6)nc54)ccc32)cn1` [Compound 80], the IC50 was 8.65 nM at AKT1 WT (setting [2]) and 28.4 nM on AKT2 (setting [2]).
As to `Nc1ncccc1-c1nc2ccc(-n3cccn3)nc2n1-c1ccc2c(c1)CC[C@@H]2N1Cc2ccncc2C1` [Compound 494], the results for the IC50 on AKT1 WT (setting [1]) and on AKT2 (setting [1]) were 199 nM and 6860 nM, respectively.
In the case of `Nc1ncccc1-c1nc2ccc(-n3cccn3)nc2n1-c1ccc2c(c1)CC[C@@H]2n1cc(C(F)F)nn1` [Compound 326], the IC50 was determined as 18.2 nM on AKT1 WT (setting [2]) and 1320 nM at AKT2 (setting [2]).
In the case of `Nc1ncccc1-c1nc2ccc(-n3cccn3)nc2n1-c1ccc2c(c1)CC[C@@H]2NC(=O)c1ccc2c(c1)CC(=O)N2` [Compound 194], the figures for the IC50 on AKT1 WT (setting [2]) and on AKT2 (setting [2]) were 9.37 nM and 39.5 nM, respectively.
In the case of `Nc1ncccc1-c1nc2ccc(-n3nccn3)nc2n1-c1ccc2c(c1)CC(F)[C@@H]2NC1CCN(C(=O)C2CC2)CC1` (stereo partly shown) [Compound 532], the values for the IC50 on AKT1 WT (setting [1]) and at AKT2 (setting [1]) were 177 nM and over 10000 nM, respectively.
Regarding `Nc1ncccc1-c1nc2ccc(-n3ccc(OC4CCOCC4)n3)nc2n1-c1ccc2c(c1)CC[C@@H]2NC1CCN(C(=O)C2CC2)CC1` [Compound 517], the IC50 on AKT1 WT (setting [1]) came to 31.6 nM; at AKT2 (setting [1]), 973 nM.
For `Cc1cnc(C)c(C(=O)N[C@H]2CCc3cc(-n4c(-c5cccnc5N)nc5ccc(-n6cccn6)nc54)ccc32)n1` [Compound 183], the IC50 on AKT1 WT (setting [2]) was 330 nM; on AKT2 (setting [2]), over 10000 nM.
In the case of `Nc1ncccc1-c1nc2ccc(-n3cccn3)nc2n1-c1ccc2c(c1)CC[C@@H]2NC(=O)c1ccc2[nH]c(=O)sc2c1` [Compound 233], the IC50 on AKT1 WT (setting [2]) worked out at 12.3 nM; on AKT2 (setting [2]), 24.2 nM.
As to `Nc1ncccc1-c1nc2ccc(-n3cccn3)nc2n1-c1ccc2c(c1)CC[C@@H]2NC(=O)c1ccc(C(F)(F)F)nc1` [Compound 77], the IC50 on AKT1 WT (setting [2]) was 13.6 nM; at AKT2 (setting [2]), 50.1 nM.
With `Nc1ncccc1-c1nc2ccc(-n3cccn3)nc2n1-c1ccc2c(c1)CC[C@@H]2NC1CCN(C(=O)C2CC2)CC1F` (stereo partly shown) [Compound 445], the IC50 at AKT1 WT (setting [1]) is 20.2 nM; on AKT2 (setting [1]), 980 nM.
As for `Nc1ncccc1-c1nc2ccc(-n3cccn3)nc2n1-c1ccc2c(c1)CC[C@@H]2n1cc(C2COC2)nn1` [Compound 220], the IC50 was found to be 68.2 nM on AKT1 WT (setting [2]) and 6260 nM at AKT2 (setting [2]).
As for `Cc1cn([C@H]2CCc3cc(-n4c(-c5cccnc5N)nc5ccc(-n6cccn6)nc54)ccc32)nn1` [Compound 304], the results for the IC50 on AKT1 WT (setting [2]) and on AKT2 (setting [2]) were 80.8 nM and 4750 nM, respectively.
The like results for `Nc1ncccc1-c1nc2ccc(-n3cccn3)nc2n1-c1ccc2c(c1)CC[C@@H]2NC(=O)c1nccnc1C(F)F` [Compound 119] were, in that order, 90.8 nM and 3160 nM.
For `Nc1ncccc1-c1nc2ccc(-n3cccn3)nc2n1-c1ccc2c(c1)CC[C@@H]2NC(=O)c1cccc(CO)c1` [Compound 240], in that order: 5.82 nM and 59.3 nM.
Turning to `COc1cc(C(=O)N[C@H]2CCc3cc(-n4c(-c5cccnc5N)nc5ccc(-n6cccn6)nc54)ccc32)sn1` [Compound 429], the IC50 on AKT1 WT (setting [1]) was 5.64 nM; on AKT2 (setting [1]), 57 nM.
Regarding `COCCOc1ccn(-c2ccc3nc(-c4cccnc4N)n(-c4ccc5c(c4)CC[C@@H]5NC4CCN(c5ccn(C)n5)CC4)c3n2)n1` [Compound 551], the concentration for half-maximal inhibition (IC50) at AKT1 WT (setting [1]) amounted to 13.1 nM; on AKT2 (setting [1]) it was 296 nM.
Regarding `Cc1cc(C(=O)N[C@H]2CCc3cc(-n4c(-c5cccnc5N)nc5ccc(-n6cccn6)nc54)ccc32)c(C)nc1C` [Compound 150], the IC50 on AKT1 WT (setting [2]) is 18.2 nM; at AKT2 (setting [2]), 107 nM.
As for `Nc1ncccc1-c1nc2ccc(-n3ccc(N4CCOCC4)n3)nc2n1-c1ccc2c(c1)CC(F)[C@@H]2NC1CCN(C(=O)C2CC2)CC1` (stereo partly shown) [Compound 544], the figures for the IC50 on AKT1 WT (setting [1]) and on AKT2 (setting [1]) were 6.24 nM and 130 nM, respectively.
In the case of `Nc1ncccc1-c1nc2ccc(-n3cccn3)nc2n1-c1ccc2c(c1)CC[C@@H]2NC(=O)c1cccc(O)c1` [Compound 307], the values for the IC50 on AKT1 WT (setting [2]) and at AKT2 (setting [2]) were 10.8 nM and 123 nM, respectively.
`CC(C)NC(=O)N[C@H]1CCc2cc(-n3c(-c4cccnc4N)nc4ccc(-n5cccn5)nc43)ccc21` [Compound 134, (S)-1-(5-(2-(2-aminopyridin-3-yl)-5-(1H-pyrazol-1-yl)-3H-imidazo[4,5-b]pyridin-3-yl)-2,3-dihydro-1H-inden-1-yl)-3-isopropylurea]: the results for the IC50 at AKT1 WT (setting [2]) and at AKT2 (setting [2]) were over 1000 nM and over 10000 nM, respectively.
For `Nc1ncccc1-c1nc2ccc(-n3ccc(Oc4ccncc4)n3)nc2n1-c1ccc2c(c1)CC[C@@H]2NC1CCN(C(=O)C2CC2)CC1` [Compound 575], the IC50 on AKT1 WT (setting [1]) amounted to 221 nM; at AKT2 (setting [1]), 3300 nM.
Turning to `COc1cc2c(cn1)CCC2N[C@H]1CCc2cc(-n3c(-c4cccnc4N)nc4ccc(-n5cccn5)nc43)ccc21` (stereo partly shown) [Compound 511], the IC50 on AKT1 WT (setting [1]) is 10.4 nM; on AKT2 (setting [1]) it was 196 nM.
As to `Nc1ncccc1-c1nc2ccc(-n3ccc(C4CC4)n3)nc2n1-c1ccc2c(c1)CC(F)[C@@H]2NC1CCN(C(=O)C2CC2)CC1` (stereo partly shown) [Compound 480], the values for the IC50 at AKT1 WT (setting [1]) and at AKT2 (setting [1]) were 38.9 nM and 3140 nM, respectively.
Take `O=C(C1CC1)N1CCC(N[C@@H]2c3ccc(-n4c(-c5ccccc5F)nc5ccc(-n6ccc(N7CCOCC7)n6)nc54)cc3CC2F)CC1` (stereo partly shown) [Compound 572]: the IC50 on AKT1 WT (setting [1]) stood at 16.1 nM; at AKT2 (setting [1]) it was 945 nM.
Regarding `Cc1cn(C)nc1C(=O)N[C@H]1CCc2cc(-n3c(-c4cccnc4N)nc4ccc(-n5cccn5)nc43)ccc21` [Compound 172], the IC50 turned out to be 203 nM at AKT1 WT (setting [2]) and 2390 nM at AKT2 (setting [2]).
The like results for `Nc1ncccc1-c1nc2ccc(-n3cccn3)nc2n1-c1ccc2c(c1)CC[C@@H]2NC(=O)c1cccnc1C#Cc1ccccc1` [Compound 210] were, in that order, 95.8 nM and 596 nM.
With `Cc1ccc(C(=O)N[C@H]2CC(F)(F)c3cc(-n4c(-c5cccnc5N)nc5ccc(-n6cccn6)nc54)ccc32)cn1` [Compound 299], the IC50 at AKT1 WT (setting [2]) is over 1000 nM; at AKT2 (setting [2]), over 10000 nM.
With `Nc1ncccc1-c1nc2ccc(-n3nccn3)nc2n1-c1ccc2c(c1)CC[C@@H]2NC(=O)c1ccns1` [Compound 413], the IC50 on AKT1 WT (setting [1]) turned out to be 21.7 nM; on AKT2 (setting [1]) it was 1470 nM.
Take `Nc1ncccc1-c1nc2ccc(-n3cccn3)nc2n1-c1ccc2c(c1)CC[C@@H]2NC(=O)c1cnc2c(c1)CC(=O)N2` [Compound 224]: the IC50 is 32.1 nM on AKT1 WT (setting [2]) and 342 nM on AKT2 (setting [2]).
As to `Cn1c(C(=O)N[C@H]2CCc3cc(-n4c(-c5cccnc5N)nc5ccc(-n6nccn6)nc54)ccc32)cnc1C1CC1` [Compound 540], the IC50 at AKT1 WT (setting [1]) is 107 nM; on AKT2 (setting [1]), 3180 nM.
With `Nc1ncccc1-c1nc2ccc(-n3cccn3)nc2n1-c1ccc2c(c1)CC[C@@H]2n1ccnn1` [Compound 188], the results for the IC50 at AKT1 WT (setting [2]) and on AKT2 (setting [2]) were 20 nM and 650 nM, respectively.

In general, IC50 refers to the concentration that gives 50% inhibition.
